# Experimental data taken from PubChem BioAssay AID1419 (Emory University Molecular Libraries Screening Center, 2008).
# The source made the active and inactive calls. How the calls were made is not given here.
# Assay: blockers of an Epstein-Barr virus protein-peptide interaction – biochemical, fluorescence polarization, dose response (AID 1419)
# Conditions: cell-free protein-peptide binding, 2 h; for fold change: measured here: P channel fold over control, at 54 µM
SMILES,IC50,fold change
COc1ccc(-n2c(C)cc(/C=C3\SC(=S)N(Cc4ccco4)C3=O)c2C)cc1,7.24 µM,5.18
COc1cc(-c2ccc(Nc3ccccc3C(=O)O)c(OC)c2)ccc1Nc1ccccc1C(=O)O,> 54 µM (inactive),0.9
O=c1ccc2cc3c4c(c2o1)CCCN4CCC3,< 0.42 µM,36.4
Nc1cc2nsnc2cc1Br,28.6 µM,1.84
COc1cc(CN2CCN(c3cccc(C)c3C)CC2)cc(OC)c1O,> 54 µM (inactive),1.03
Oc1ccccc1C=NC1=NN(c2cccc(C(F)(F)F)c2)CC1,3.11 µM,19.9
Cn1c(SCC(=O)Nc2ccc3nc(SCC(=O)N4CCCC4)sc3c2)nnc1-c1ccc(N)cc1,36.4 µM (inactive),1.12
Cn1c(=O)c2[nH]c(-c3ccccc3)c(O)c2n(C)c1=O,< 0.42 µM,6.43
COc1ccc(N/C=C2\C(=O)CCc3c2oc2cc(Cl)c(O)c(Cl)c32)cc1,> 54 µM (inactive),11.2
O=c1nc2c(O)cccn2c2c1c(=O)[nH]c1ccccc12,< 0.42 µM,7.35
CCOC(=O)C1C(=O)C=C(/C=C/c2ccc(N(C)C)cc2)CC1c1ccccc1 (stereo unspecified),> 54 µM (inactive),7.93
COc1ccc2nc(N3C(=O)/C(=C/c4ccc(Cl)cc4)NC3=S)sc2c1,> 54 µM (inactive),1.37
O=C1CCN2C=Nc3cccc4ccc1c2c34,< 0.42 µM,171
Cc1cc(/C=C(/C#N)c2nc3ccccc3[nH]2)c(C)n1-c1cc(C(=O)O)cc(C(=O)O)c1,2.92 µM,23.1
Cc1cc(/C=C(\C#N)c2nc3ccccc3[nH]2)c(C)n1C,1.32 µM,6.63
Cc1cc2nc3c(=O)n(Cc4ccccc4)c(=O)[nH]c3nc2cc1N,< 0.42 µM,87.1
COC(=O)c1cc(NC(=O)c2cccc(Cl)c2)c(=O)oc1/C=C/Nc1cc(C)cc(C)c1,4.37 µM,22.8
Fc1ccccc1/C=N/Nc1ncnc2nc[nH]c12,> 54 µM (inactive),1.17
Nc1cc2nc3ccccc3nc2cc1N,< 0.42 µM,24.2
O=C1CCC(=O)N1c1nc2n(n1)C(c1ccccc1)C=C(c1ccc(Br)cc1)N2 (stereo unspecified),> 54 µM (inactive),1.53
O=C1NC(=O)N(c2ccc(F)cc2)C(=O)/C1=C/c1ccc2c(c1)CCCN2Cc1ccccc1,< 0.42 µM,38

SMILES,IC50,fold change
CC(=O)Nc1ccc2cc3ccc(NC(C)=O)cc3nc2c1,0.56 µM,12.5
CN(C)CCCN1C(=O)c2cccc3c([N+](=O)[O-])ccc(c23)C1=O,18 µM,2.14
Cc1ccc(C2C(C(=O)c3cccs3)=C(O)C(=O)N2c2nnc(C)s2)cc1 (stereo unspecified),0.9 µM,3.94
Cc1ccsc1C1C=C(c2cccc(Br)c2)Nc2ncnn21 (stereo unspecified),1.75 µM,3.13
O=[n+]1c2c(n([O-])c3cc(F)c(N4CCCC4)cc31)CCCC2,< 0.42 µM,11.6
Cc1cc[n+](-c2[nH]c(=O)sc2/C=N/N=C(\[O-])c2ccccc2)cc1C,< 0.42 µM,16.5
CN(C)c1ccc(/C=C(\C#N)C(=O)Nc2nc3c(s2)CCN(Cc2ccccc2)C3)cc1,1.21 µM,19.9
Cn1c(=O)cc2c3c(c(N4CCCCC4)ccc31)C(=O)c1ccccc1-2,4.67 µM,1.91
CCn1c(SCc2ccc(C(=O)Nc3nccs3)cc2)nnc1-c1ccc(N)cc1,> 54 µM (inactive),0.973
Nc1nnc(-c2cc3c(ccc4ccccc43)oc2=O)s1,< 0.42 µM,2.34
Clc1ccc(OCc2nnc(-c3ccccc3Br)o2)c(Cl)c1,> 54 µM (inactive),1
CC(C)c1cc(=O)oc2c3c4c(cc12)CCCN4CCC3,1.88 µM,5.95
COc1cc(C2C=C(c3cccs3)Nc3ncnn32)cc(OC)c1OC (stereo unspecified),< 0.42 µM,13.5
Cc1c2cc(O)c(=O)cc-2oc2cc(O)c(O)cc12,1 µM,236
Nc1cccc(C(=O)OCC(=O)Nc2cccc3c2C(=O)c2ccccc2C3=O)c1,1.81 µM,2.03
O=[N+]([O-])c1ccc(-c2cn3nc(-c4ccccc4)c(-c4ccccc4)nc3n2)cc1,3.58 µM,21.1
COc1ccc(/C=N/N=C2/CC(C)(C)Cc3n[nH]c(=O)cc32)cc1,4.15 µM,3.61
CCN(CC)C(=O)CC(c1cc(OC)c(OC)c(OC)c1)c1c(OC)cc(OC)c2c(-c3ccccc3)cc(=O)oc12 (stereo unspecified),33.8 µM (inactive),1.01
CC(O)CCc1nc2ccc(C(=O)O)cc2[nH]1 (stereo unspecified),> 54 µM (inactive),0.983
C#CCn1cc(C=C2C(=O)c3ccccc3C2=O)c2ccccc21,9.87 µM,4.31
Cc1cc(-c2cccs2)c2c(N)c(C(=O)c3ccc4c(c3)OCO4)sc2n1,5.56 µM,6.29

SMILES,IC50,fold change
CCCN1C(=O)c2cccc3c(N4CCCCC4)ccc(c23)C1=O,> 54 µM (inactive),15.2
c1ccc(-c2cn3nc4c(nc3n2)CCCC4)cc1,4.56 µM,2.57
CC1C2C(C)N(C)C(=O)N(C)C2N(C)C(=O)N1C (stereo unspecified),8.68 µM,8.94
CCOc1ccc(Cn2c3ccc(OC)cc3c3nc4ccccc4nc32)cc1,1.15 µM,6.17
Cc1ccc(C)c2nc3sc(C(=O)N4CCCc5ccccc54)c(N)c3cc12,1.24 µM,11.6
CCN(CC)c1ccc(/C=C(\C#N)C(=O)c2ccc(Br)cc2)cc1,2.69 µM,107
CC(=O)Nc1cccc(C2=CC(c3ccco3)n3ncnc3N2)c1 (stereo unspecified),1.48 µM,20.3
COc1ccc(NC(=O)N(CCc2ccccc2)Cc2cc3c(C)cc(C)cc3[nH]c2=O)cc1,> 54 µM (inactive),0.987
CCCCn1c(=O)[nH]c2nc3cc(N)ccc3nc2c1=O,< 0.42 µM,110
O=C(CCN1C(=O)COc2ccccc21)NCc1ccco1,> 54 µM (inactive),1.02
N=C1/C(=C/c2ccc(-c3cccc(C(=O)O)c3)o2)C(=O)N=C2SC=C(c3ccccc3)N12,3.82 µM,1.36
CCOC(=O)c1oc2cc(OCC(=O)OC)ccc2c(=O)c1-c1ccc(OC)c(OC)c1,> 54 µM (inactive),0.99
COc1ccc(-c2c(C#N)c(N)nc3sc(C(=O)c4ccccc4)c(N)c23)cc1,6.7 µM,7.69
CCOC(=O)C1CCCN(c2ccc([N+](=O)[O-])c3nonc23)C1 (stereo unspecified),< 0.42 µM,143
CCn1c(CSc2nnc3ccccn23)nc2cc(C(=O)O)ccc21,4.04 µM,1.93
CCN(CC)c1ccc(/C=C(/C#N)c2nc3ccccc3[nH]2)c(OC(C)C)c1,10.7 µM,14.3
N#C/C(=C/c1ccc(-c2ccc(S(N)(=O)=O)cc2)o1)c1nc2ccccc2s1,> 54 µM (inactive),30.3
Fc1ccc(/C=N/NC2=Nc3cccc4cccc2c34)cc1,7.4 µM,3.32
O=C(Nc1nccs1)C(c1ccccc1)N1CCCC1 (stereo unspecified),> 54 µM (inactive),1.04
CCCNC(=O)Cn1c(=O)/c(=C\c2ccc(-c3cccc([N+](=O)[O-])c3)o2)s/c1=C\C(=O)C(C)(C)C,1.02 µM,8.62
CC(=O)Nc1ccc(Nc2c3c4c(cccc4n(C)c2=O)C(=O)c2ccccc2-3)cc1,< 0.42 µM,9.61

SMILES,IC50,fold change
COC(=O)C(Nc1nccs1)(OC)C(F)(F)F (stereo unspecified),13.8 µM,2.09
COC(=O)c1cc2c(C)c(C)c3ccccn3c-2c1C(=O)OC,3.61 µM,2.38
O=C(NCc1ccco1)c1c2c(nc3ccccc13)CCC2,> 54 µM (inactive),1.05
N=C1S/C(=C\c2ccc(-c3cccc(Cl)c3)o2)C(=O)N1c1nccs1,5.78 µM,2
Cc1cccc(N=Nc2c(O)[nH]c3ccc(F)cc23)c1,2.03 µM,12
CCOC(=O)C1=NNC(C(=O)c2ccc(Cl)cc2)C1c1ccc(OC)cc1 (stereo unspecified),> 54 µM (inactive),0.933
CCCn1c(SCCc2ccccc2)nc2c1c(=O)[nH]c(=O)n2C,> 54 µM (inactive),0.953
CCN(CC)c1ccc2oc(=O)c(C)nc2c1,4.76 µM,9.58
CCCCN1C(=O)/C(=C/C=C2\N(C)c3ccccc3C2(C)C)SC1=S,2.01 µM,18.6
CCc1ccc(NC(=O)c2ccc3ncsc3c2)cc1,> 54 µM (inactive),0.87
Cc1ccccc1NC(=O)CSc1ccsc1[N+](=O)[O-],15.2 µM,1.04
N#CC1(C#N)CC(C=O)=C(N)C1(C#N)CC(=O)C12CC3CC(CC(C3)C1)C2 (stereo unspecified),> 54 µM (inactive),0.933
Oc1oc(-c2ccccc2)nc1C=Nc1cccc2ccccc12,7.47 µM,3.16
CCN1CC=C2C(C#N)=C(N)C(C#N)(C#N)[C@H](c3ccoc3)[C@H]2C1,7.47 µM,3.84
Cc1cc(C)cc(-n2c(O)c(C=Nc3ccc(N4CCOCC4)cc3)c(=O)[nH]c2=S)c1,> 54 µM (inactive),2.23
CCCCCCn1c(=O)[nH]c2nc3cc(N)ccc3nc2c1=O,< 0.42 µM,85.8
O=C1c2ccccc2-c2onc3ccc(NCc4ccco4)c1c23,< 0.42 µM,61.5
COc1ccc(/C=C2\SC(c3ccc(C)cc3)=NC2=O)cc1OC,> 54 µM (inactive),8.37
Cc1cc(S(=O)(=O)Nc2nc(CN3CCOCC3)nc3sc4c(c23)CCCC4)ccc1F,> 54 µM (inactive),1.04
NC(=O)c1cc2ccc(O)cc2oc1=NCc1ccccc1,< 0.42 µM,34.3
